pIC50: −log10 of the molar value.
Tests used:
[1] = target: human full length His-tagged BTK (Homo sapiens (Human), UniProt Q06187); test: BTK Lanthscreen Eu Kinase Binding assay; conditions: TR-FRET tracer displacement, 2 nM BTK, 30 min pre-incubation
Experimental: BTK Lanthscreen® Eu Kinase Binding assay:
A Lanthscreen® Eu Kinase Binding assay (Life Technologies) was performed to quantitate the ability of test compounds to bind to BTK. The assay is based on the binding and displacement of Alexa Fluor647-labeled Kinase Tracer #236 to the ATP-binding site of human full length His-tagged BTK (Life Technologies cat # PV3587) with TR-FRET detection using a europium-labeled anti-His antibody. The assay was assembled in 384-well low volume NBS black plates (Corning) where 2 nM BTK and test compound in DMSO at varying concentrations were pre-incubated for 30 min at 28° C. in assay buffer consisting of 50 mM HEPES, pH 7.4, 10 mM MgCl2, 1 mM EGTA. 100 μM Na3VO4 and 0.01% Brij 35. Then, 2 nM of Eu-anti His antibody and 30 nM Kinase Tracer were added and incubated for […] at 28° C. Following incubation, TR-FRET signal was read on an Envision plate reader (Excitation: 340 nm; Emissions: 615 and 665 nm). The 665: 615 nm emission ratio was calculated and converted to POC compared to control and blank wells.

BTK = BTK (Homo sapiens (Human), UniProt Q06187); test: Inhibition of IL-6 production in B cells co-stimulated with ODN 2006 and anti-hIgD; type: cell-based; conditions: primary CD19+ B cells, anti-human IgD + ODN 2006 stimulation, 18-24 hours; read-out: B-cell IL-6 IC50
Experimental: Inhibition of IL-6 Production in B Cells Co-Stimulated with ODN 2006 and Anti-hIgD
Primary CD19+ B cells (AllCells # PB010F) are thawed and plated in RPMI containing 10% HI FBS in a 384-well tissue cultured plate at 20,000 cells/well. The cells are treated with test compound (0.5% DMSO final concentration) and incubated for 1 hour at 37° C., 5% CO2. Cells are then stimulated with 5 μg/mL Goat F(ab′)2 anti-human IgD (SouthernBiotech #2032) and 2 uM ODN 2006 (InvivoGen # till-2006) and incubated for 18-24 hours at 37° C., 5% CO2. IL-6 in the supernatant is measured using Meso Scale Discovery kit # K211AKB-6.
(§1) The compounds described herein show a range of selectivity against EGFR as measured in cellular assays (BTK activity measured by IL-6 production in primary CD19^+ cells; EGFR activity measured by EGFR phosphorylation in A431 cells).

EGFR = EGFR (Homo sapiens (Human), UniProt P00533); test: Inhibition of EGFR autophosphorylation in A431 human epithelial cells stimulated with epithelial growth factor; type: cell-based; conditions: 16 hours compound, EGF 60 ng/mL 10 minutes, read-out: A431 p-EGFR IC50
Experimental: Inhibition of EGFR Autophosphorylation in A431 Human Epithelial Cells Stimulated with Epithelial Growth Factor
A431 cells (ATCC # CRL-1555 FZ) are thawed and plated in DMEM containing 10% FBS in a 384-well tissue culture treated plate at 15,000 cells/well. After incubating for 24 hours at 37° C., 5% CO2, the cells are treated with test compound (1% DMSO final concentration) and incubated for 16 hours at 37° C., 5% CO2. EGF (Millipore, 01-107) is added at a final concentration of 60 ng/mL and incubated for 10 minutes. The medium is removed, the cells are lysed, and phospho EGFR is measured (Meso Scale Diagnostics, N31CB-1).
as §1

EGFR, sequence (P00533 25-1210): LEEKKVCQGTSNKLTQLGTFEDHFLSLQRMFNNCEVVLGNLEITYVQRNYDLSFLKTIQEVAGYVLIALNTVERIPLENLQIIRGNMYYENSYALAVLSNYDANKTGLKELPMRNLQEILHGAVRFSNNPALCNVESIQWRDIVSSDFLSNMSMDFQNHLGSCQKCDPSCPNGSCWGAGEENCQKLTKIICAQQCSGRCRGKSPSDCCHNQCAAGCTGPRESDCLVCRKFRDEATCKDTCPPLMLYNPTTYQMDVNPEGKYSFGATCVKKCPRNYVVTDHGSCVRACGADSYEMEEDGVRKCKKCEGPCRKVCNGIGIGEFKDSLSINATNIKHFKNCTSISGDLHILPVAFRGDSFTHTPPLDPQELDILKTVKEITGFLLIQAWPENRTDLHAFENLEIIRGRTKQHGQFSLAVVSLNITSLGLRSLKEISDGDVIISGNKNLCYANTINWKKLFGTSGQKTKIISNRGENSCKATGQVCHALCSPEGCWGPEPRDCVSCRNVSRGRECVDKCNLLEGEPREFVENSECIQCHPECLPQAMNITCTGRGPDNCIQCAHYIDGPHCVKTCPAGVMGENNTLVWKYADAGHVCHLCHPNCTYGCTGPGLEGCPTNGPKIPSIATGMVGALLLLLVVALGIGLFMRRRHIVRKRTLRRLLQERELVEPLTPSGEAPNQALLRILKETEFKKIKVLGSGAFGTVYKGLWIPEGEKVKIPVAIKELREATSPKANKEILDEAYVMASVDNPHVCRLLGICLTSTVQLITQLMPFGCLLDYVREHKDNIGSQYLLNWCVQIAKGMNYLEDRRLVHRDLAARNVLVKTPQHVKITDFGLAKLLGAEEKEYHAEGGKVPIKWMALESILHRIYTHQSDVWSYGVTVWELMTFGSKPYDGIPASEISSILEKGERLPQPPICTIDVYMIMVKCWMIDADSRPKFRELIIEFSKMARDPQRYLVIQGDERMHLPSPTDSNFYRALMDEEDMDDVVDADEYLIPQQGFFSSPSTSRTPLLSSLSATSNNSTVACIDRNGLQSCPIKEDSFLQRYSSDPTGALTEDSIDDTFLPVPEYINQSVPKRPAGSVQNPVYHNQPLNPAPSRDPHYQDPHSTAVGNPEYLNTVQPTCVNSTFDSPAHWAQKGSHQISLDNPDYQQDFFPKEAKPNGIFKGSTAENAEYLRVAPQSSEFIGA
BTK, sequence (Q06187 whole entry): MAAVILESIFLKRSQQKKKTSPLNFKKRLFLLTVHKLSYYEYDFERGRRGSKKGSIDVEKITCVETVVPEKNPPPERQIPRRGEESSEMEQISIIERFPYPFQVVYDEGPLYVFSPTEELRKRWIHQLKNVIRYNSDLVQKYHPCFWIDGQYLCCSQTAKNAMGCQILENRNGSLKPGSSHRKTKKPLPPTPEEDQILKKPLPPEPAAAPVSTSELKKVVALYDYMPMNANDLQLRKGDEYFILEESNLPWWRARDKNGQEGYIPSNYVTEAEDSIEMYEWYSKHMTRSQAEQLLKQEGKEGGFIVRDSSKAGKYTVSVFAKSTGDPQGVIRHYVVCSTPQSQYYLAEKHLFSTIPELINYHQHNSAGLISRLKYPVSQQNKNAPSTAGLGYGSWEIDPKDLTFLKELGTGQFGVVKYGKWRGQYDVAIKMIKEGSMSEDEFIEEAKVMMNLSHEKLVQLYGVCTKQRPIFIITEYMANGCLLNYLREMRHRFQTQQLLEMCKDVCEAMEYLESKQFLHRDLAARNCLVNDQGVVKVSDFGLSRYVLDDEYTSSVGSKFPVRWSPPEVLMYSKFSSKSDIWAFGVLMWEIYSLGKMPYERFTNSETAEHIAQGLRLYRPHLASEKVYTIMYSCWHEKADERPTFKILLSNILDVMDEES
human full length His-tagged BTK, sequence (Q06187 whole entry): as above

| SMILES | pIC50 [1] | pIC50 (BTK) | pIC50 (EGFR) |
| --- | --- | --- | --- |
| CC#CC(=O)N1CC(c2cc3cc(C4CC4)ccc3c(=O)n2-c2cccc(-c3ccc4[nH]ncc4c3)c2CO)C1 [Example 30] | 6.35 | – | – |
| C=CC(=O)N1CCC(c2cc3cc(C4CC4)ccc3c(=O)n2-c2cccc(-c3ccn4cncc4c3)c2CO)C1 (stereo not shown) [Example 25] | 6.80 | – | – |
| C=CC(=O)N1CC(Cc2cc3cc(C4CC4)ccc3c(=O)n2-c2cccc(-c3cc(C(N)=O)n(C)c3)c2CO)C1 [Example 2] | 8.40 | 7.44 | < 5.00 |
| C=CC(=O)N1CC(Cc2cc3cc(C4CC4)cc(OC)c3c(=O)n2-c2cccc(-c3cc(C(N)=O)n(C)c3)c2CO)C1 [Example 38] | 6.60 | – | – |
| C=CC(=O)N1CC(c2cc3cc(C4CC4)ccc3c(=O)n2-c2cccc(-c3ccnc(N)c3)c2Cl)C1 [Example 20] | 8.05 | 7.43 | 5.49 |
| C=CC(=O)N(C)Cc1cc2cc(C3CC3)ccc2c(=O)n1-c1cccc(-c2cc(N)c(=O)n(C)c2)c1CO [Example 24] | 6.85 | – | – |
| C=CC(=O)N1CC(c2cc3cc(C4CC4)ccc3c(=O)n2-c2cccc(-c3cc(N)ncn3)c2CO)C1 [Example 21] | 9.32 | 8.72 | < 5.00 |
| Cn1cc(-c2cccc(-n3c(C4CCN(C#N)C4)cc4cc(C5CC5)ccc4c3=O)c2CO)cc(N)c1=O (stereo not shown) [Example 31] | 6.32 | – | – |
| C=CC(=O)N1CCC(c2cc3cc(C4CC4)ccc3c(=O)n2-c2cccc(-c3cc(N)c(=O)n(C)c3)c2CO)C1 (stereo not shown) [Example 16] | 7.70 | 7.04 | < 5.00 |
| C=CC(=O)N1CC(c2cc3cc(C4CC4)ccc3c(=O)n2-c2cccc(-c3cc(C(N)=O)n(C)c3)c2CO)C1 (single isomer, unassigned) [Example 43] | 9.25 | 8.44 | < 5.00 |
| CC#CC(=O)N1CC(c2cc3cc(C4CC4)ccc3c(=O)n2-c2cccc(-c3cc(N)c(=O)n(C)c3)c2CO)C1 [Example 28] | 6.51 | – | – |
| N#CN1CC(c2cc3cc(C4CC4)ccc3c(=O)n2-c2cccc(-c3cccc(C(N)=O)c3)c2CO)C1 [Example 4] | 8.30 | – | – |
| C=CC(=O)N1CCC1Cc1cc2cc(C3CC3)ccc2c(=O)n1-c1cccc(-c2cc(C(N)=O)n(C)c2)c1CO (stereo not shown) [Example 6] | 8.41 | 7.80 | 5.35 |
| C=CC(=O)N1CC(Cc2cc3cc(C4CC4)ccc3c(=O)n2-c2cccc(-c3cc(N)ncn3)c2CO)C1 [Example 14] | 7.72 | 7.07 | < 5.00 |
| C=CC(=O)N1CC(c2cc3cc(C4CC4)ccc3c(=O)n2-c2cccc(-c3ccnc(N)c3)c2CO)C1 [Example 17] | – | 8.43 | < 5.00 |
| CN(C#N)Cc1cc2cc(C3CC3)ccc2c(=O)n1-c1cccc(-c2cc(N)c(=O)n(C)c2)c1CO [Example 32] | 6.31 | – | – |
| N#CN1CC(c2cc3cc(C4CC4)ccc3c(=O)n2-c2cccc(-c3cc(N)ncn3)c2CO)C1 [Example 12] | 8.48 | 7.55 | 5.35 |
| C=CC(=O)N1CC(c2cc3cc(C4CC4)ccc3c(=O)n2-c2cccc(-c3cc(C(N)=O)n(C)c3)c2CO)C1 (single isomer, unassigned) [Example 42] | 6.25 | – | – |
| CC#CC(=O)N1CC(c2cc3cc(C4CC4)ccc3c(=O)n2-c2cccc(-c3ccnc(NC)c3)c2CO)C1 [Example 35] | 6.28 | – | – |
| C=CC(=O)N1CC(c2cc3cc(C4CC4)ccc3c(=O)n2-c2cccc(-c3cc(N)c(=O)n(C)c3)c2CO)C1 [Example 11] | 8.72 | 7.68 | < 5.00 |
| C=CC(=O)N1CC(c2cc3cc(C4CC4)cc(F)c3c(=O)n2-c2cccc(-c3cc(C(N)=O)n(C)c3)c2CO)C1 [Example 40] | 9.38 | 8.34 | < 5.00 |

| SMILES | pIC50 [1] | pIC50 (BTK) | pIC50 (EGFR) |
| --- | --- | --- | --- |
| Cn1cc(-c2cccc(-n3c(C4CN(C#N)C4)cc4cc(C5CC5)ccc4c3=O)c2CO)cc(N)c1=O [Example 9] | 8.59 | – | – |
| C=CC(=O)N(C)Cc1cc2cc(C3CC3)ccc2c(=O)n1-c1cccc(-c2cc(C(N)=O)n(C)c2)c1CO [Example 18] | 7.23 | 6.80 | < 5.00 |
| C=CC(=O)N1CC(c2cc3cc(C4CC4)ccc3c(=O)n2-c2cccc(-c3ccnc(NC)c3)c2CO)C1 [Example 15] | 8.38 | 8.06 | < 5.00 |
| C/C=C/C(=O)N1CC(c2cc3cc(C4CC4)ccc3c(=O)n2-c2cccc(-c3ccnc(NC)c3)c2CO)C1 [Example 29] | 6.36 | – | – |
| C=CC(=O)N1CC(Cc2cc3cc(C4CC4)ccc3c(=O)n2-c2cccc(-c3ccc4cncn4c3)c2CO)C1 [Example 27] | 6.51 | – | – |
| C=CC(=O)N(C)Cc1cc2cc(C3CC3)ccc2c(=O)n1-c1cccc(-c2cccc(C(N)=O)c2)c1CO [Example 36] | 6.24 | – | – |
| C=CC(=O)N1CCC(c2cc3cc(C4CC4)ccc3c(=O)n2-c2cccc(-c3ccnc(N)c3F)c2CO)C1 (stereo not shown) [Example 37] | 6.21 | – | – |
| CC#CC(=O)N1CC(c2cc3cc(C4CC4)ccc3c(=O)n2-c2cccc(-c3cc(C(N)=O)n(C)c3)c2CO)C1 [Example 19] | 7.19 | – | – |
| C=CC(=O)N(C)Cc1cc2cc(C3CC3)ccc2c(=O)n1-c1cccc(-c2ccnc(N)c2)c1CO [Example 23] | 6.92 | – | – |
| Cn1cc(-c2cccc(-n3c(C4CN(C#N)C4)cc4cc(C5CC5)ccc4c3=O)c2CO)cc1C(N)=O [Example 1] | 9.15 | 8.37 | 5.33 |
| C/C=C/C(=O)N1CC(c2cc3cc(C4CC4)ccc3c(=O)n2-c2cccc(-c3cc(C(N)=O)n(C)c3)c2CO)C1 [Example 26] | 6.64 | – | – |
| C=CC(=O)N1CC(c2cc3cc(C4CC4)ccc3c(=O)n2-c2cccc(-c3cc(C(N)=O)n(C)c3)c2CO)C1 [Example 7] | 9.15 | 8.25 | < 5.00 |
| C=CC(=O)N1CC(Cc2cc3cc(C4CC4)ccc3c(=O)n2-c2cccc(-c3ccnc(NC)c3)c2CO)C1 [Example 33] | 6.29 | – | – |
| CC#CC(=O)N(C)Cc1cc2cc(C3CC3)ccc2c(=O)n1-c1cccc(-c2cc(C(N)=O)n(C)c2)c1CO [Example 34] | 6.28 | – | – |
| C=CC(=O)N1CCC(c2cc3cc(C4CC4)ccc3c(=O)n2-c2cccc(-c3ccncc3)c2CO)C1 (stereo not shown) [Example 22] | 7.43 | – | – |
| N#CN1CC(c2cc3cc(C4CC4)ccc3c(=O)n2-c2cccc(-c3ccc4[nH]ncc4c3)c2CO)C1 [Example 3] | 8.72 | – | – |
| C=CC(=O)N1CC(Cc2cc3cc(C4CC4)cc(F)c3c(=O)n2-c2cccc(-c3cc(C(N)=O)n(C)c3)c2CO)C1 [Example 41] | 9.15 | – | – |
| CC#CC(=O)N1CC(Cc2cc3cc(C4CC4)ccc3c(=O)n2-c2cccc(-c3cc(C(N)=O)n(C)c3)c2CO)C1 [Example 8] | 7.96 | 7.02 | < 5.00 |
| C=CC(=O)N1CC(c2cc3cc(C4CC4)ccc3c(=O)n2-c2cccc(-c3cccc(C(N)=O)c3)c2CO)C1 [Example 5] | 8.28 | 7.00 | < 5.00 |
| C=CC(=O)N1CCC(c2cc3cc(C4CC4)ccc3c(=O)n2-c2cccc(-c3cc(C(N)=O)n(C)c3)c2CO)C1 (stereo not shown) [Example 13] | 8.62 | 7.92 | < 5.00 |

From US10570118B2, “Isoquinolones as BTK inhibitors” (Boehringer Ingelheim International GmbH, priority 2016, dated 2020)
